Assay results reported in patent publication US9174992B2, “Heterobicyclic compounds” (Amgen Inc., priority 2012, dated 2015).

Each compound was assayed against PDE10A (UniProt Q9Y233) (assay: PDE10 enzyme inhibition, IMAP TR-FRET assay (Example A, MPDE10A7 Enzyme Activity and Inhibition)). Details: approximate IC50 value, Table 10.
Format: biochemical
Outline: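 Compounds were preincubated 60 min at room temperature with PDE10A enzyme or tissue homogenate, then fluorescein-labeled cAMP or cGMP was added for 90 min. After stopping with IMAP binding reagents, TR-FRET was read and IC50s were fitted with a four-parameter logistic equation.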
For `Fc1ccc2nc(N[C@H]3C[C@H](n4c(C5CC5)nc5cccnc54)C3)ccc2c1` [Example 7, N-(trans-3-(2-cyclopropyl-3H-imidazo[4,5-b]pyridin-3-yl)cyclobutyl)-6-fluoroquinolin-2-amine], the IC50 was 1.41 nM. `O=C1N([C@H]2C[C@H](Nc3nc4ccccc4s3)C2)c2ncccc2C12CCC2` [Example 35, 1′-(trans-3-(benzo[d]thiazol-2-ylamino)cyclobutyl)spiro[cyclobutane-1,3′-pyrrolo[2,3-b]pyridin]-2′(1′H)-one] gave an IC50 of 0.115 nM. Compound `c1ccc2nc(N[C@H]3C[C@H](n4c(C5CC5)nc5cccnc54)C3)ncc2c1` [Example 8, N-(Trans-3-(2-cyclopropyl-3H-imidazo[4,5-b]pyridin-3-yl)cyclobutyl)quinazolin-2-amine] has an IC50 of 1.68 nM. For `c1ccc2nc(N[C@H]3C[C@H](n4cnc5cccnc54)C3)ncc2c1` [Example 22, N-(Trans-3-(3H-imidazo[4,5-b]pyridin-3-yl)cyclobutyl)quinazolin-2-amine], the IC50 was 178 nM. Work on `Nc1nn([C@H]2C[C@H](Nc3nc4ccccc4s3)C2)c2ncccc12` [Example 113, N-(trans-3-(3-amino-1H-pyrazolo[3,4-b]pyridin-1-yl)cyclobutyl)benzo[d]thiazol-2-amine] yielded an IC50 of 77.1 nM. `O=c1n(C2CC2)c2nccnc2n1[C@H]1C[C@H](Nc2nc3cccnc3s2)C1` [Example 178, 1-cyclopropyl-3-(trans-3-(thiazolo[5,4-b]pyridin-2-ylamino)cyclobutyl)-1H-imidazo[4,5-b]pyrazin-2(3 H)-one] was tested, and the IC50 was 2.22 nM. Compound `CC1(C)C(=O)N([C@H]2C[C@H](Nc3ncc4ccccc4n3)C2)c2nccnc21` [Example 179, 7,7-dimethyl-5-(trans-3-(quinazolin-2-ylamino)cyclobutyl)-5H-pyrrolo[2,3-b]pyrazin-6(7 H)-one] has an IC50 of 2.01 nM. `Cn1c(=O)n([C@H]2C[C@H](Nc3nc4ccccc4o3)C2)c2ncc(F)cc21` [Example 196, 3-(Trans-3-(benzo[d]oxazol-2-ylamino)cyclobutyl)-6-fluoro-1-methyl-1H-imidazo[4,5-b]pyridin-2(3 H)-one] showed an IC50 of 4.2 nM. In the case of `CC1(C)C(=O)N([C@H]2C[C@H](Nc3ccc(-n4cccn4)cn3)C2)c2nccnc21` [Example 164, 5-(trans-3-((5-(1H-pyrazol-1-yl)pyridin-2-yl)amino)cyclobutyl)-7,7-dimethyl-5H-pyrrolo[2,3-b]pyrazin-6(7 H)-one triacetate], the IC50 is reported as 0.921 nM. `O=c1[nH]c2cccnc2n1[C@H]1CC[C@H](Nc2ccc3ccccc3n2)CC1` [Example 108, 3-(trans-4-(quinolin-2-ylamino)cyclohexyl)-1H-imidazo[4,5-b]pyridin-2(3H)-one] gave an IC50 of 266 nM. Compound `Cn1c(=O)n([C@H]2C[C@H](Nc3nc4ccccc4s3)C2)c2ccccc21` [Example 155, 1-(trans-3-(benzo[d]thiazol-2-ylamino)cyclobutyl)-3-methyl-1H-benzo[d]imidazol-2(3H)-one] has an IC50 of 1.67 nM. For `COC(=O)c1ccc(-c2ncnc3c2nc(C(F)(F)F)n3[C@H]2C[C@H](Nc3ncc4ccccc4n3)C2)cc1` [Example 25, methyl 4-(9-(trans-3-(quinazolin-2-ylamino)cyclobutyl)-8-(trifluoromethyl)-9H-purin-6-yl)benzoate], the IC50 was 735 nM. `CC1(C)C(=O)N([C@H]2CCN(c3nc4ccccc4s3)C2)c2nccnc21` [Example 141, (S)-5-(1-(benzo[d]thiazol-2-yl)pyrrolidin-3-yl)-7,7-dimethyl-5H-pyrrolo[2,3-b]pyrazin-6(7H)-one] was tested, and the IC50 was 295 nM. Compound `CC1(C)C(=O)N([C@H]2C[C@@H](Nc3nc4ccccc4s3)C2)c2ncccc21` [Example 81, 1-(Cis-3-(benzo[d]thiazol-2-ylamino)cyclobutyl)-3,3-dimethyl-1H-pyrrolo[2,3-b]pyridin-2(3H)-one] has an IC50 of 1.26 nM. For `Cn1c(=O)n([C@H]2C[C@H](Nc3nc4ccc(F)cc4s3)C2)c2ncccc21` [Example 153, 3-(trans-3-((6-fluorobenzo[d]thiazol-2-yl)amino)cyclobutyl)-1-methyl-1H-imidazo[4,5-b]pyridin-2(3H)-one], the IC50 was 0.255 nM. `CC1(C)C(=O)N([C@H]2C[C@H](Nc3ncccc3Cl)C2)c2ncccc21` [Example 57] showed an IC50 of 11 nM. Work on `Cn1c(=O)n([C@H]2C[C@H](Nc3nc4ccccc4s3)C2)c2ncncc21` [Example 93, 9-(trans-3-(benzo[d]thiazol-2-ylamino)cyclobutyl)-7-methyl-7H-purin-8(9H)-one] yielded an IC50 of 0.878 nM. Work on `O=c1n(C2CC2)c2nccnc2n1[C@H]1C[C@H](Nc2ccc(Cl)cn2)C1` [Example 221, 1-(trans-3-((5-chloropyridin-2-yl)amino)cyclobutyl)-3-cyclopropyl-1H-imidazo[4,5-b]pyrazin-2(3H)-one] yielded an IC50 of 2.77 nM. `O=c1[nH]c2cccnc2n1[C@H]1C[C@@H](Nc2nc3ccccc3s2)C1` [Example 103, 3-(cis-3-(benzo[d]thiazol-2-ylamino)cyclobutyl)-1H-imidazo[4,5-b]pyridin-2(3H)-one] gave an IC50 of 26.6 nM. `CC1(C)C(=O)N([C@H]2C[C@H](Nc3ccc(Br)cn3)C2)c2ncccc21` [Example 40, 1-(Trans-3-((5-bromopyridin-2-yl)amino)cyclobutyl)-3,3-dimethyl-1H-pyrrolo[2,3-b]pyridin-2(3H)-one] was tested, and the IC50 was 0.263 nM. `CNC(=O)c1ccc(N[C@H]2C[C@H](N3C(=O)C(C)(C)c4cccnc43)C2)nc1` [Example 29, 6-((trans-3-(3,3-dimethyl-2-oxo-2,3-dihydro-1H-pyrrolo[2,3-b]pyridin-1-yl)cyclobutyl)amino)-N-methylnicotinamide] was tested, and the IC50 was 76.7 nM. `COc1nc2cccnc2n1C1CCN(C(=O)c2nc3ccccc3s2)CC1` [Example 124, Benzo[d]thiazol-2-yl(4-(2-methoxy-3H-imidazo[4,5-b]pyridine-3-yl)piperidin-1-yl)methanone] was tested, and the IC50 was 2.64 nM. With `Cc1ccc(N[C@H]2CC[C@H](N3C(=O)C(C)(C)c4cccnc43)CC2)nc1` [Example 77, 3,3-Dimethyl-1-(trans-4-((5-methylpyridin-2-yl)amino)cyclohexyl)-1H-pyrrolo[2,3-b]pyridin-2(3H)-one] the IC50 was 1.29 nM. In the case of `O=c1n(C2CC2)c2nccnc2n1[C@H]1CC[C@H](Nc2ccc3ncccc3n2)CC1` [Example 227, 1-(trans-4-((1,5-naphthyridin-2-yl)amino)cyclohexyl)-3-cyclopropyl-1H-imidazo[4,5-b]pyrazin-2(3H)-one], the IC50 is reported as 1.87 nM. `O=c1n(C2CC2)c2nccnc2n1[C@H]1C[C@H](Nc2nc3ccc(Cl)cc3o2)C1` [Example 229, 1-(trans-3-((6-chlorobenzo[d]oxazol-2-yl)amino)cyclobutyl)-3-cyclopropyl-1H-imidazo[4,5-b]pyrazin-2(3H)-one] showed an IC50 of 10.1 nM. `c1cnc2c(c1)nc(C1CC1)n2[C@H]1C[C@H](Nc2ccc3ccncc3n2)C1` [Example 16, N-(Trans-3-(2-cyclopropyl-3h-imidazo[4,5-b]pyridin-3-yl)cyclobutyl)-1,7-naphthyridin-2-amine] showed an IC50 of 23.7 nM. Work on `c1ccc2sc(N[C@H]3C[C@H](n4nc(C5CC5)c5cccnc54)C3)nc2c1` [Example 114, N-(trans-3-(3-cyclopropyl-1H-pyrazolo[3,4-b]pyridin-1-yl)cyclobutyl)benzo[d]thiazol-2-amine] yielded an IC50 of 0.152 nM. Compound `Cc1cnc(N[C@H]2C[C@H](N3C(=O)C(C)(C)c4cccnc43)C2)s1` [Example 205, 3,3-dimethyl-1-(trans-3-((5-methylthiazol-2-yl)amino)cyclobutyl)-1H-pyrrolo[2,3-b]pyridin-2(3H)-one] has an IC50 of 13.2 nM. `c1ccc2nc(N[C@H]3C[C@H](n4c(C5CC5)nc5cncnc54)C3)ncc2c1` [Example 13, N-(trans-3-(8-cyclopropyl-9H-purin-9-yl)cyclobutyl)quinazolin-2-amine] showed an IC50 of 7.94 nM. With `c1ccc2sc(N[C@H]3C[C@H](n4c(C5CC5)nc5cccnc54)C3)nc2c1` [Example 2, N-(trans-3-(2-cyclopropyl-3H-imidazo[4,5-b]pyridin-3-yl)cyclobutyl)benzo[d]thiazol-2-amine] the IC50 was 0.373 nM. Compound `CC1(C)C(=O)N([C@H]2C[C@H](Nc3nc4ccccc4s3)C2)c2nccnc21` [Example 34, 5-(trans-3-(benzo[d]thiazol-2-ylamino)cyclobutyl)-7,7-dimethyl-5H-pyrrolo[2,3-b]pyrazin-6(7H)-one] has an IC50 of 0.107 nM. For `CC1(C)C(=O)N([C@H]2C[C@H](Nc3ccc(F)cn3)C2)c2nccnc21` [Example 76, 5-(trans-3-((5-fluoropyridin-2-yl)amino)cyclobutyl)-7,7-dimethyl-5H-pyrrolo[2,3-b]pyrazin-6(7H)-one], the IC50 was 51.1 nM. `COc1ccc(N[C@H]2C[C@H](N3C(=O)C(C)(C)c4cccnc43)C2)nc1` [Example 39] gave an IC50 of 0.212 nM. Work on `CC1(C)C(=O)N([C@H]2C[C@H](Nc3ccc4ncccc4n3)C2)c2ncncc21` [Example 150, 7-(trans-3-((1,5-naphthyridin-2-yl)amino)cyclobutyl)-5,5-dimethyl-5H-pyrrolo[2,3-d]pyrimidin-6(7H)-one] yielded an IC50 of 0.906 nM. `CC1(C)C(=O)N([C@H]2C[C@H](Nc3nc4cc(F)ccc4s3)C2)c2nccnc21` [Example 154, 5-(trans-3-((5-fluorobenzo[d]thiazol-2-yl)amino)cyclobutyl)-7,7-dimethyl-5H-pyrrolo[2,3-b]pyrazin-6(7H)-one] was tested, and the IC50 was 0.136 nM. With `Cn1c(=O)n([C@H]2C[C@H](Nc3nc4ccc(F)cc4s3)C2)c2ncc(F)cc21` [Example 209, 6-fluoro-3-(trans-3-((6-fluorobenzo[d]thiazol-2-yl)amino)cyclobutyl)-1-methyl-1H-imidazo[4,5-b]pyridin-2(3H)-one] the IC50 was 0.88 nM. For `COc1nc2cccnc2n1[C@H]1C[C@H](Nc2cnc3ccc(Cl)cc3n2)C1` [Example 19, 7-chloro-N-(trans-3-(2-methoxy-3H-imidazo[4,5-b]pyridin-3-yl)cyclobutyl)quinoxalin-2-amine], the IC50 was 35.7 nM. `CC1(C)C(=O)N([C@H]2C[C@H](Nc3ncc(Cl)cn3)C2)c2ncccc21` [Example 61, 1-(trans-3-((5-chloropyrimidin-2-yl)amino)cyclobutyl)-3,3-dimethyl-1H-pyrrolo[2,3-b]pyridin-2(3H)-one] showed an IC50 of 30.4 nM.
